Reference: article PMC11134387, “Cancer-Stem-Cell Phenotype-Guided Discovery of a Microbiota-Inspired Synthetic Compound Targeting NPM1 for Leukemia” (JACS Au, 2024)
Entries after “also recorded” stand apart in the source; their conditions may differ.

How the values were obtained:
[1] = tested on: HCT-116-derived colonospheres; experiment: Formation of HCT-116-derived colonospheres (CSC tumorspheres); type: cell-based; conditions: Homo sapiens, HCT-116; @5 µM (footnote d); read-out: Inhibition of tumorsphere formation (%) HCT-116
Experimental: (BD Biosciences, Franklin Lakes, NJ, USA). All cells were maintained at 37 °C in a humidified incubator in an atmosphere of 5% CO2, and passaged every 2–3 days.
Additionally, they were cultured using RPMI media (Gibco/Life Technologies; Grand […]
Colonospheres, mamospheres and colony formation unit assays. 30.000 cells per well of MCF-7 cells (mamos pheres), HCT-116 cells (colonospheres) and CD34+ cells from patients (colony formation units) were seeded in serum free non- adherent medium or […]
MethoCult (Stem Cell). […]

NPM1 = experiment: qPCR of NPM1 expression in OCI-AML3 cells; type: cell-based; conditions: OCI-AML3, 10 μM
Source text: We next studied the impact of UCM-13369 in the genes and/or expression levels of NPM1 and NPM1 C+ pathway components (Figure 4A), including the positive regulation of c-Myc[34] and the negative regulation of FBXW7 and the pro-apoptotic CASP8.[35] […] The inhibition of NPM1 was also observed in MOLM13 cells expressing WT NPM1 (Figure S1B). […]
quantitative real-time PCR (qPCR), or were sorted using a FACS BD INFL UX cell sorter (BD Biosciences, Franklin Lakes, NJ, USA). All cells were maintained at 37 °C in a humidified incubator in an atmosphere of 5% CO2, and passaged every 2–3 days.
Additionally, they were cultured using RPMI media (Gibco/Life Technologies; Grand Island, NY, USA) supplemented with 10% fetal bovine serum (FBS) (Hyclone) and […]
Primary cells. […] After 72 h in maintenance cells were ready to start the assays. […]
Colonospheres, mamospheres and colony formation unit assays. […] After 10 days (mamospheres and colonospheres) and 14 days (CFU-E) we quantified t he number of colonies/spheres and number of cell s (CFU-E) by […]
RNA and DNA extraction and quantitative PCR (qPCR). […] Gene expression was studied from the extracted RNA, processed into cDNA to quantify the expression of NPM1 and c-MYC. […]
The relative amount of targets was determined by the comparative Ct method.
Western blot. […] Lysates wer e cl ear ed by centrifugation (14,000g, 4 °C, 30 min), protein concentration determined by Bradford

NPM1 C+ = experiment: Confocal microscopy of NPM1 subcellular localization in OCI-AML3 cells; type: cell-based; conditions: OCI-AML3, 10 μM
Experimental: To further elucidate the mechanism of action of UCM-13369, we studied the influence of the compound on the subcellular localization of the protein by confocal microscopy, using an Alexa Fluor-647-conjugated NPM1 primary antibody (Figure 4D).
Cells were plated onto glass coverslips or Greiner Bio-One μClear black 96-well plate (7.5 × 10^4 cells per well) and treated with compound UCM-13369 for 48 h. Then, cells were fixed with 4% paraformaldehyde for 15 min, permeabilized with 0.1% Triton X-100 for 30 min, and blocked in 5% bovine serum albumin for 1 h at rt. Incubation with primary antibodies against NPM1 (7H10B9, NOVUS Biologicals) was carried out overnight at 4 °C. Alexa Fluor-488-conjugated antimouse or antirabbit antibodies (Molecular Probes) were used for detection of the reported proteins by confocal microscopy. Nuclei were counterstained with 4′,6-diamidino-2-phenylindole (DAPI) bath. A total of 35 fields per well were acquired with ×40 magnification lens for those samples run in the Opera HCS system (PerkinElmer). Images were segmented using the DAPI staining and the coefficient of variation of NPM1 intensity per nucleus/cytoplasm was calculated using Definiens Developer XD software.

OCI-AML3-ffLuc-GFP cells = experiment: AML xenograft mouse model (OCI-AML3-ffLuc-GFP in NSG mice); type: in vivo
Experimental: Based on the encouraging results obtained in ex vivo models of AML, we further assessed the therapeutic potential of the new NPM1 inhibitor in vivo. Prior to the evaluation of the compound in an animal model of AML, in vivo pharmacokinetic studies were addressed. Following a single intraperitoneal administration of UCM-13369 at a dose of 25 mg/kg, levels of 200–600 μg/L were detected in mouse peripheral blood up to 6 h (Figure 6A). Plasma protein binding of the compound in mouse serum was measured using an equilibrium dialysis assay, indicating a bound fraction of 83 ± 1%. Next, the efficacy of the compound was evaluated in immunodeficient mice after injection of OCI-AML3-ffLuc-GFP cells as an AML animal model.
An AML xenograft mouse model was used for the in vivo study of efficacy. Female 6- to 8-week-old NOD.Cg-Prkdcscid Il2rgtm1Wjl/SzJ (NSG) mice (Vivotecnia, Madrid, Spain) were inoculated intravenously by tail vein injection with OCI-AML3-ffLuc-GFP cells (1 × 10^6). Four days later, the mice were randomized into two groups of 10 animals: the first group received intraperitoneal injections of vehicle (0.9% saline solution) 5 days a week; the second group received intraperitoneal injections of 25 mg/kg or 50 mg/kg UCM-13369 five times weekly for 3 weeks. The mice were monitored for tumor burden, distribution, and engraftment every week by IVIS whole-body bioluminescence imaging. Bioimaging of MM burden in vivo was performed by IVIS Imaging system (Caliper Life Science). A solution of luciferin (D-luciferin monosodium salt, Thermo Fisher) in PBS was injected (150 mg/kg, ip), and luminescence signal was determined after 10 min. The data were analyzed using the Living Image 4.2 (Caliper Life Science) software.

MCF-7 = experiment: Cytotoxic effect in breast tumor cell line (MTT); conditions: Homo sapiens, MCF7, read-out: Viability (%) MCF-7, @5 µM (footnote d)
Experimental: The cytotoxic effect was determined in breast (MCF-7) and colon (HCT-116) tumor cell lines using MTT assays.
Cells were seeded at 3 × 10^4 cells/mL in 96-well plates. The test compound was diluted in PBS. […] Viability was evaluated by MTT or WST-1 and dose/response curves were performed.

COc1ccc(C2Cc3[nH]c4ccccc4c3C(CCNCC3CC3)C2N)cc1 (centres unmarked) [4b, 4-{2-[(Cyclopropylmethyl)amino]ethyl}-2-(4-methoxyphenyl)-2,3,4,9-tetrahydro-1H-carbazol-3-amine]
inhibition at 5 µM [1]: 100%
NPM1 expression, dot plot (in words) (NPM1): decreased NPM1 expression
Subcellular localization of NPM1 (in words) (NPM1 C+): reduction of the cytoplasmic form of the protein
Reduction in tumor mass (in words) (OCI-AML3-ffLuc-GFP cells; 25 mg/kg, data not shown): negligible
Tumor cell infiltration of bone marrow, H&E staining (in words) (OCI-AML3-ffLuc-GFP cells; 50 mg/kg): less tumor cell infiltration
Survival, treated vs untreated animals (in words) (OCI-AML3-ffLuc-GFP cells; 50 mg/kg, Kaplan-Meier, listed as UCM-13369): no significant differences; also recorded: no difference
Tumor infiltration vs untreated group at end point (in words) (OCI-AML3-ffLuc-GFP cells; 50 mg/kg, bioluminescence): reduction of tumor infiltration
viability at 5 µM (MCF-7): 96%
